Values of other authors, collected in publication PMC7530097 (Chemical communications (Cambridge, England), 2020).

Experiments:
[1] = target: Group-II agr subgroup of S. aureus (Staphylococcus aureus, UniProt O33587); conditions: read-out: IC50 (95% CI) Group-II; β-lactamase reporter cell assay; ref [6]
[2] = target: Group-III agr subgroup of S. aureus (Staphylococcus aureus, UniProt O33590); conditions: read-out: IC50 (95% CI) Group-III; β-lactamase reporter cell assay; ref [6]
AgrC = conditions: ref [25]

Substance	IC50 [1] [nM]	IC50 [2] [nM]	inhibition of AgrC (AgrC)
AIP-I	25	3	–
Solonamide B	–	–	competitively inhibit AgrC
